# Source: PubChem BioAssay (NCI)
# Values joined by “and” are separate entries in the source; they are usually repeats but may differ in a detail not shown here. Identical values can stand only once.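 These data come from cells grown in 96-well plates and exposed to compound for 48 hours at five concentrations. At the GI50, growth is halved. Definition used: TGI = concentration required for complete inhibition of growth.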
# How the values were obtained:
# Assay in all cases: NCI tumour cell line growth inhibition, 48 h
# A498 renal = system: A498 renal
# MDA-MB-231 breast = system: MDA-MB-231 breast
# TK-10 renal = system: TK-10 renal
# DLD-1 colon = system: DLD-1 colon
# MDA-N = system: MDA-N
# SK-MEL-5 melanoma = system: SK-MEL-5 melanoma
# T-47D breast = system: T-47D breast
# SNB-78 CNS = system: SNB-78 CNS
# NCI/ADR-RES ovarian = system: NCI/ADR-RES ovarian
# OVCAR-8 ovarian = system: OVCAR-8 ovarian
# LXFL 529 NSCLC = system: LXFL 529 NSCLC
# SN12K1 renal = system: SN12K1 renal
# HCT-15 colon = system: HCT-15 colon
# SNB-75 CNS = system: SNB-75 CNS
# XF 498 CNS = system: XF 498 CNS
# MCF7 breast = system: MCF7 breast
# CCRF-CEM leukemia = system: CCRF-CEM leukemia
# SNB-19 CNS = system: SNB-19 CNS
# SN12C renal = system: SN12C renal
# NCI-H460 lung = system: NCI-H460 lung
# MOLT-4 leukemia = system: MOLT-4 leukemia
# HOP-18 NSCLC = system: HOP-18 NSCLC
# DMS 273 small cell lung = system: DMS 273 small cell lung
# M19-MEL melanoma = system: M19-MEL melanoma
# DMS 114 small cell lung = system: DMS 114 small cell lung
# EKVX NSCLC = system: EKVX NSCLC
# DU-145 prostate = system: DU-145 prostate
# ACHN renal = system: ACHN renal
# KM20L2 colon = system: KM20L2 colon
# HCT-116 colon = system: HCT-116 colon
# RXF-631 renal = system: RXF-631 renal
# UACC-257 melanoma = system: UACC-257 melanoma
# MDA-MB-435 = system: MDA-MB-435
# HT29 colon = system: HT29 colon
# MALME-3M melanoma = system: MALME-3M melanoma
# SK-MEL-28 melanoma = system: SK-MEL-28 melanoma
# LOX IMVI melanoma = system: LOX IMVI melanoma
# IGROV1 ovarian = system: IGROV1 ovarian
# BT-549 breast = system: BT-549 breast
# P388/ADR leukemia = system: P388/ADR leukemia
# KM12 colon = system: KM12 colon
# P388 leukemia = system: P388 leukemia
# OVCAR-3 ovarian = system: OVCAR-3 ovarian
# PC-3 prostate = system: PC-3 prostate
structure (smiles),measurement,setting,value
Cc1c(N)nc([C@H](CC(N)=O)NC[C@H](N)C(N)=O)nc1C(=O)N[C@H](C(=O)N[C@H](C)[C@@H](O)[C@H](C)C(=O)N[C@H](C(=O)NCCc1nc(-c2nc(C(=O)NCCC[S+](C)C)cs2)cs1)[C@@H](C)O)C(OC1OC(CO)C(O)C(O)C1OC1OC(CO)C(O)C(OC(N)=O)C1O)c1cnc[nH]1 (stereo partly specified),TGI,A498 renal,19.6 µM and 29 µM and 41.5 µM
same,GI50,MDA-MB-231 breast,23.3 µM and 78.8 µM
same,TGI,MDA-MB-231 breast,25 µM and > 100 µM
same,GI50,TK-10 renal,2.36 µM and 20.4 µM
same,GI50,DLD-1 colon,> 29 µM
same,TGI,DLD-1 colon,23.7 µM and > 29 µM
same,GI50,MDA-N,8.86 µM and 23.8 µM
same,TGI,MDA-N,24.4 µM and 25 µM and > 100 µM
same,TGI,SK-MEL-5 melanoma,16.9 µM [middle of 4 runs]
same,GI50,T-47D breast,5.28 µM and 1.03 µM and 5.77 µM
same,TGI,T-47D breast,24.8 µM and 14.8 µM and 45.9 µM
same,GI50,SNB-78 CNS,> 29 µM
same,TGI,SNB-78 CNS,24.9 µM and > 29 µM
same,GI50,NCI/ADR-RES ovarian,1.21 µM and 1.09 µM
same,TGI,NCI/ADR-RES ovarian,12.8 µM and 4.87 µM and 5.61 µM
same,GI50,OVCAR-8 ovarian,1.49 µM and 1.59 µM
same,TGI,OVCAR-8 ovarian,22.8 µM and 11.2 µM and 15.2 µM
same,GI50,LXFL 529 NSCLC,> 29 µM
same,TGI,LXFL 529 NSCLC,23.6 µM and > 29 µM
same,TGI,SN12K1 renal,21 µM
same,TGI,HCT-15 colon,29 µM [middle of 4 runs]
same,GI50,SNB-75 CNS,5.98 µM and 1.06 µM
same,TGI,SNB-75 CNS,6.42 µM and 13.4 µM and 18.8 µM
same,TGI,XF 498 CNS,13.5 µM
same,GI50,MCF7 breast,1.71 µM and 3.16 µM
same,TGI,MCF7 breast,22.5 µM and 25 µM and > 100 µM
same,TGI,CCRF-CEM leukemia,25 µM [middle of 4 runs]
same,GI50,SNB-19 CNS,2.72 µM and 2.89 µM
same,TGI,SNB-19 CNS,23 µM and 25 µM and > 100 µM
same,TGI,SN12C renal,13.2 µM [middle of 4 runs]
same,TGI,NCI-H460 lung,13.1 µM and 7.63 µM and 31.6 µM
same,GI50,MOLT-4 leukemia,0.204 µM and 0.613 µM
same,TGI,MOLT-4 leukemia,13.1 µM and 2.22 µM and 4.41 µM
same,TGI,HOP-18 NSCLC,13.3 µM
same,GI50,DMS 273 small cell lung,0.0709 µM
same,TGI,DMS 273 small cell lung,7.82 µM and 29 µM
same,GI50,M19-MEL melanoma,12.9 µM
same,TGI,M19-MEL melanoma,25 µM and 29 µM
same,GI50,DMS 114 small cell lung,1.29 µM
same,TGI,DMS 114 small cell lung,5.68 µM and 29 µM
same,GI50,EKVX NSCLC,25 µM
same,TGI,EKVX NSCLC,22 µM and 25 µM
same,TGI,DU-145 prostate,20.2 µM and 5.4 µM and 30 µM
same,GI50,ACHN renal,0.0135 µM and 0.0134 µM
same,TGI,ACHN renal,0.343 µM and 0.34 µM and 1.03 µM
same,TGI,KM20L2 colon,24.3 µM and 29 µM
same,TGI,HCT-116 colon,20.9 µM [middle of 4 runs]
same,GI50,RXF-631 renal,0.372 µM
same,TGI,RXF-631 renal,17.7 µM and 10.4 µM
same,GI50,UACC-257 melanoma,27.5 µM
same,TGI,UACC-257 melanoma,24.6 µM and > 100 µM
same,GI50,MDA-MB-435,25.3 µM
same,TGI,MDA-MB-435,25 µM and > 100 µM
same,TGI,HT29 colon,25 µM and 29 µM and > 100 µM
same,GI50,MALME-3M melanoma,0.75 µM and 1.65 µM
same,TGI,MALME-3M melanoma,9.03 µM and 22.9 µM and 20.7 µM
same,GI50,SK-MEL-28 melanoma,> 29 µM and 28.1 µM
same,TGI,SK-MEL-28 melanoma,25 µM and > 29 µM and > 100 µM
same,GI50,LOX IMVI melanoma,0.0661 µM
same,TGI,LOX IMVI melanoma,5.32 µM and 1.89 µM and 1.51 µM
same,GI50,IGROV1 ovarian,6.89 µM and 1.22 µM
same,TGI,IGROV1 ovarian,22.9 µM and 29 µM and 33.6 µM
same,GI50,BT-549 breast,6.48 µM and 7.49 µM
same,TGI,BT-549 breast,23.8 µM and 25 µM and > 100 µM
same,TGI,P388/ADR leukemia,20 µM
same,GI50,KM12 colon,4.49 µM
same,TGI,KM12 colon,24.5 µM and 23 µM and > 100 µM
same,TGI,P388 leukemia,18.5 µM
same,TGI,OVCAR-3 ovarian,29 µM [middle of 4 runs]
same,GI50,PC-3 prostate,2.63 µM and 5.22 µM
same,TGI,PC-3 prostate,25 µM and > 100 µM
